Test results from article doi:10.1101/2024.08.19.608619, “Discovery of potent SARS-CoV-2 nsp3 macrodomain inhibitors uncovers lack of translation to cellular antiviral response” (bioRxiv, 2024).
Where two headings read alike, the source gives them in different places.

Columns and labels:
SARS-CoV-2 nsp3-mac1 [1] = target: T1, SARS-CoV-2 nsp3-mac1 (Severe acute respiratory syndrome coronavirus 2, UniProt P0DTD1); experiment: biochemical; format: biochemical; details: SARS-CoV-2 nsp3 macrodomain TR-FRET single point
SARS-CoV-2 nsp3-mac1 [2] = target: T1, SARS-CoV-2 nsp3-mac1; experiment: biochemical; design: SARS-CoV-2 nsp3 macrodomain TR-FRET single point, per cent inhibition, n=2
[3] = read-out: perc_inhibition_mean, batch_name=ASAP-0000474-001
[4] = read-out: perc_inhibition_mean, batch_name=ASAP-0000285-001
[5] = read-out: perc_inhibition_mean, batch_name=ASAP-0000392-001
[6] = read-out: perc_inhibition_mean, batch_name=ASAP-0000335-001
[7] = read-out: perc_inhibition_mean, batch_name=ASAP-0000398-001
[8] = read-out: perc_inhibition_mean, batch_name=ASAP-0000336-001
[9] = read-out: perc_inhibition_mean, batch_name=ASAP-0000258-001
[10] = read-out: perc_inhibition_mean, batch_name=ASAP-0000477-001
[11] = read-out: perc_inhibition_mean, batch_name=ASAP-0000290-001
[12] = read-out: perc_inhibition_mean, batch_name=ASAP-0000455-001
[13] = read-out: perc_inhibition_mean, batch_name=ASAP-0000293-001
[14] = read-out: perc_inhibition_mean, batch_name=ASAP-0000242-001

## Cc1ncc(NCc2cnc3c(c2)NC(=O)CO3)cc1Cl [ASAP-0000195]
SARS-CoV-2 nsp3-mac1 [1]; concentration 50.0 uM
  perc_inhibition_mean: -0.368%
SARS-CoV-2 nsp3-mac1 [2]; read-out: perc_inhibition_mean, batch_name=ASAP-0000195-001
  inhibition at 50 µM: -0.368%

## Cn1cc([C@H]2CCCCN2c2ncnc3[nH]ccc23)cn1 [ASAP-0000474]
SARS-CoV-2 nsp3-mac1 [1]; concentration 49.75 uM
  perc_inhibition_mean: 6.392%
SARS-CoV-2 nsp3-mac1 [1]; concentration 99.5 uM
  perc_inhibition_mean: 8.316%
SARS-CoV-2 nsp3-mac1 [2]; [3]
  inhibition at 49.75 µM: 6.39%
  inhibition at 99.5 µM: 8.32%

## O=S(=O)(NC[C@@H]1CCCCO1)c1cn2c(n1)CCCC2 [ASAP-0000105]
SARS-CoV-2 nsp3-mac1 [1]; concentration 50.0 uM
  perc_inhibition_mean: -5.386%
SARS-CoV-2 nsp3-mac1 [2]; read-out: perc_inhibition_mean, batch_name=ASAP-0000105-001
  inhibition at 50 µM: -5.39%

## O=C(c1ncc[nH]1)N1CCC(c2ccn3ncc(C(=O)N4CCCCC4)c3c2)CC1 [ASAP-0000285]
SARS-CoV-2 nsp3-mac1 [1]; concentration 49.75 uM, n=2
  perc_inhibition_mean: 18.474%
SARS-CoV-2 nsp3-mac1 [1]; concentration 99.5 uM, n=2
  perc_inhibition_mean: 37.203%
SARS-CoV-2 nsp3-mac1 [2]; [4]
  inhibition at 49.75 µM: 18.5%
  inhibition at 99.5 µM: 37.2%

## CN1CCC[C@H](NC(=O)c2cnn3ccc(C4CCN(C(=O)c5ccccc5)CC4)cc23)C1 [ASAP-0000392]
SARS-CoV-2 nsp3-mac1 [1]; concentration 49.75 uM
  perc_inhibition_mean: -6.989%
SARS-CoV-2 nsp3-mac1 [1]; concentration 99.5 uM
  perc_inhibition_mean: -5.439%
SARS-CoV-2 nsp3-mac1 [2]; [5]
  inhibition at 49.75 µM: -6.99%
  inhibition at 99.5 µM: -5.44%

## O=C(CCN(Cc1cccc(Cl)c1)C(=O)c1ccc(F)cn1)N1CCNCC1 [ASAP-0000335]
SARS-CoV-2 nsp3-mac1 [1]; concentration 49.75 uM, n=2
  perc_inhibition_mean: 6.758%
SARS-CoV-2 nsp3-mac1 [1]; concentration 99.5 uM, n=2
  perc_inhibition_mean: 6.737%
SARS-CoV-2 nsp3-mac1 [2]; [6]
  inhibition at 49.75 µM: 6.76%
  inhibition at 99.5 µM: 6.74%

## C[C@@]1(C(N)=O)CCCN1C(=O)c1cnn2ccc(C3CCN(C(=O)c4ccccc4)CC3)cc12 [ASAP-0000398]
SARS-CoV-2 nsp3-mac1 [1]; concentration 49.75 uM
  perc_inhibition_mean: -8.039%
SARS-CoV-2 nsp3-mac1 [1]; concentration 99.5 uM
  perc_inhibition_mean: 10.386%
SARS-CoV-2 nsp3-mac1 [2]; [7]
  inhibition at 49.75 µM: -8.04%
  inhibition at 99.5 µM: 10.4%

## Nc1c(O)cccc1C(=O)N(CCC(=O)N1CCNCC1)Cc1cccc(Cl)c1 [ASAP-0000336]
SARS-CoV-2 nsp3-mac1 [1]; concentration 49.75 uM, n=2
  perc_inhibition_mean: -1.238%
SARS-CoV-2 nsp3-mac1 [1]; concentration 99.5 uM, n=2
  perc_inhibition_mean: 1.457%
SARS-CoV-2 nsp3-mac1 [2]; [8]
  inhibition at 49.75 µM: -1.24%
  inhibition at 99.5 µM: 1.46%

## O=c1[nH]cnc2[nH]cc(-c3ccoc3)c12 [ASAP-0000258]
SARS-CoV-2 nsp3-mac1 [1]; concentration 50.0 uM, n=2
  perc_inhibition_mean: -14.47%
SARS-CoV-2 nsp3-mac1 [1]; concentration 100.0 uM, n=2
  perc_inhibition_mean: -13.824%
SARS-CoV-2 nsp3-mac1 [2]; [9]
  inhibition at 50 µM: -14.5%
  inhibition at 100 µM: -13.8%

## CC(C)[C@H]1N(c2ncnc3[nH]ccc23)CC12CCOCC2 [ASAP-0000477]
SARS-CoV-2 nsp3-mac1 [1]; concentration 49.75 uM
  perc_inhibition_mean: 27.65%
SARS-CoV-2 nsp3-mac1 [1]; concentration 99.5 uM
  perc_inhibition_mean: 47.993%
SARS-CoV-2 nsp3-mac1 [2]; [10]
  inhibition at 49.75 µM: 27.6%
  inhibition at 99.5 µM: 48%

## c1nc(N2CC[C@@H](n3cncn3)C2)c2cc[nH]c2n1 [ASAP-0000006]
SARS-CoV-2 nsp3-mac1 [1]; concentration 50.0 uM
  perc_inhibition_mean: -1.543%
SARS-CoV-2 nsp3-mac1 [2]; read-out: perc_inhibition_mean, batch_name=ASAP-0000006-001
  inhibition at 50 µM: -1.54%

## COc1cc(Nc2ncnc3[nH]ccc23)ccc1NC(C)=O [ASAP-0000060]
SARS-CoV-2 nsp3-mac1 [1]; concentration 50.0 uM
  perc_inhibition_mean: -7.761%
SARS-CoV-2 nsp3-mac1 [2]; read-out: perc_inhibition_mean, batch_name=ASAP-0000060-001
  inhibition at 50 µM: -7.76%

## O=C1C[C@H](CNC(=O)c2ccc(NC(=O)Nc3ccccc3)cc2)CCN1 [ASAP-0000290]
SARS-CoV-2 nsp3-mac1 [1]; concentration 49.75 uM, n=2
  perc_inhibition_mean: 1.223%
SARS-CoV-2 nsp3-mac1 [1]; concentration 99.5 uM, n=2
  perc_inhibition_mean: 4.013%
SARS-CoV-2 nsp3-mac1 [2]; [11]
  inhibition at 49.75 µM: 1.22%
  inhibition at 99.5 µM: 4.01%

## CC(C)[C@@H](Nc1ncnc2[nH]ccc12)c1cccs1 [ASAP-0000455]
SARS-CoV-2 nsp3-mac1 [1]; concentration 49.75 uM
  perc_inhibition_mean: 84.659%
SARS-CoV-2 nsp3-mac1 [1]; concentration 99.5 uM
  perc_inhibition_mean: 89.893%
SARS-CoV-2 nsp3-mac1 [2]; [12]
  inhibition at 49.75 µM: 84.7%
  inhibition at 99.5 µM: 89.9%

## Fc1ccc(F)c(Sc2ncnc3[nH]ccc23)c1 [ASAP-0000049]
SARS-CoV-2 nsp3-mac1 [1]; concentration 50.0 uM
  perc_inhibition_mean: -1.149%
SARS-CoV-2 nsp3-mac1 [2]; read-out: perc_inhibition_mean, batch_name=ASAP-0000049-001
  inhibition at 50 µM: -1.15%

## CCn1cc(CNc2nc3[nH]cnc3c(=O)[nH]2)nn1 [ASAP-0000127]
SARS-CoV-2 nsp3-mac1 [1]; concentration 50.0 uM
  perc_inhibition_mean: -0.991%
SARS-CoV-2 nsp3-mac1 [2]; read-out: perc_inhibition_mean, batch_name=ASAP-0000127-001
  inhibition at 50 µM: -0.991%

## CN1CCO[C@H](CNC(=O)c2ccc(NC(=O)Nc3ccccc3)cc2)C1 [ASAP-0000293]
SARS-CoV-2 nsp3-mac1 [1]; concentration 49.75 uM, n=2
  perc_inhibition_mean: -0.616%
SARS-CoV-2 nsp3-mac1 [1]; concentration 99.5 uM, n=2
  perc_inhibition_mean: 3.272%
SARS-CoV-2 nsp3-mac1 [2]; [13]
  inhibition at 49.75 µM: -0.616%
  inhibition at 99.5 µM: 3.27%

## Cn1cnc2c(Nc3cncc(CN)c3)nc(N)nc21 [ASAP-0000242]
SARS-CoV-2 nsp3-mac1 [1]; concentration 50.0 uM
  perc_inhibition_mean: -14.217%
SARS-CoV-2 nsp3-mac1 [1]; concentration 100.0 uM
  perc_inhibition_mean: -28.278%
SARS-CoV-2 nsp3-mac1 [2]; [14]
  inhibition at 50 µM: -14.2%
  inhibition at 100 µM: -28.3%
